Assay: Choice of the pH value (HPLC peak area of Forsythiaside)
Format: physicochemical
Conditions: for Peak Area: HPLC peak area of Forsythiaside in water
Description: Taking appropriate amount of Forsythiaside, adding water to it for dissolution. Adjusting the pH value to 3.0, 3.5, 4.0, 4.5, 5.0, 5.5, 6.0 separately, then determining the peak area value of Forsythiaside at different pH value by HPLC to investigate the influence on the content of Forsythiaside caused by different pH value.

Peak Area (pH Value 3.0): 1410.0
Peak Area (pH Value 3.5): 1499.0
Peak Area (pH Value 4.0): 1519.8
Peak Area (pH Value 4.5): 1523.1
Peak Area (pH Value 5.0): 1494.5
Peak Area (pH Value 5.5): 1480.6
Peak Area (pH Value 6.0): 1423.5
content of Forsythiaside at different pH value (pH value 3.0-6.0): not sufficiently varied
content of Forsythiaside at different pH value (pH value 4.5): highest content
Substance: Forsythiaside

Reference: US20100317604A1, “FORSYTHIASIDE INJECTION PREPARATION AND PREPARATIVE METHOD THEREOF” (Shanghai Youseen New Medicine Exploition Co., Ltd, priority 2006, published 2010)
